Structures can show the parent of a compound that is named as a salt.
target: T1, Wee1 (Homo sapiens, UniProt P30291); assay: Cell assay for Wee1 inhibitory activity (cell-based ELISA of cdc2 phosphorylation); settings: aphidicolin-synchronized Hela cells in G2-M; phospho-cdc2(Tyr15) sandwich ELISA; read-out: pIC50, cell assay for Wee1 inhibitory activity (converted)
T1 construct: endogenous in cells; host or cells: HeLa cells
Text: Cell Assay for Wee1 Inhibitory Activity
Wee1 inhibitory activity can be measured using a cell-based ELISA assay.
Hela cells are synchronized using aphidicolin, which blocks the entry of cells into S-phase. Cells in G2-M transition phase are then obtained by releasing the cells from aphidicolin treatment for approximately 7-9 hrs. The phosphorylation level of the Wee1 target cdc2 may then be measured by sandwich ELISA using an anti-cdc2 antibody and an anti-phospho-cdc2(Tyr15) antibody. This cell assay was used to calculate a pIC50 for the compounds described in Examples 3, 4, 6-8, 10-12, 15, 17, 18, 21, 23, 25-27, 33, 35, 39, 43, 44, 51, 63, and 99.

T1 sequence (P30291 whole entry): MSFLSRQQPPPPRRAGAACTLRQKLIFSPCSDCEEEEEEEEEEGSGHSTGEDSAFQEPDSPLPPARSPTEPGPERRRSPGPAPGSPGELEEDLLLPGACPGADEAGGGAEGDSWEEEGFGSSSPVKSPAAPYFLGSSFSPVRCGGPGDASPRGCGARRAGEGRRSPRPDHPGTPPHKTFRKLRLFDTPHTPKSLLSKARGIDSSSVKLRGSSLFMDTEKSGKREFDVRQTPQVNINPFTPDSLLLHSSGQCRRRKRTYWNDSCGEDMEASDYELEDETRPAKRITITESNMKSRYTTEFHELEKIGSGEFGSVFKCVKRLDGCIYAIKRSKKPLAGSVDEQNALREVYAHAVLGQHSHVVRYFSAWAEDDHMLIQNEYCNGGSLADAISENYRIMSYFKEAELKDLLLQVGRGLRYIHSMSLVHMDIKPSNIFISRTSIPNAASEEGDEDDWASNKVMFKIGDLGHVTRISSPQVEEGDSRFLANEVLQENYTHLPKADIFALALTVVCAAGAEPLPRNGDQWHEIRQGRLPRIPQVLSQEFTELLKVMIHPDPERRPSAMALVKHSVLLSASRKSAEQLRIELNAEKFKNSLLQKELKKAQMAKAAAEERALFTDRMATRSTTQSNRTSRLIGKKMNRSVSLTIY

Row | SMILES | IC50
1 | Fc1cccc(CCNc2nc(Nc3ccc(Cn4cncn4)cc3)ncc2-c2cncnc2)c1 [Example 26, N^4-[2-(3-fluorophenyl)ethyl]-N^2-[4-(1H-1,2,4-triazol-1-ylmethyl)phenyl]-5,5′-bipyrimidine-2,4-diamine] | ≤ 10 µM
2 | CCN(CC)CCOc1ccc(Nc2ncc(-c3ccc(O)cc3)c(Nc3ccccc3OC)n2)cc1 [Example 7] | ≤ 10 µM
3 | COc1ccccc1Nc1nc(Nc2cccc(OCCN(C)C)c2)ncc1-c1cn[nH]c1 [Example 99, N^2-(3-{[2-(dimethylamino)ethyl]oxy}phenyl)-N^4-[2-(methyloxy)phenyl]-5-(1H-pyrazol-4-yl)-2,4-pyrimidinediamine hydrochloride] | ≤ 10 µM
4 | CCN(CC)CCOc1ccc(Nc2ncc(-c3cccc(CO)c3)c(Nc3ccccc3OC)n2)cc1 [Example 21, [3-(2-[(4-{[2-(diethylamino)ethyl]oxy}phenyl)amino]-4-{[2-(methyloxy)phenyl]amino}-5-pyrimidinyl)phenyl]methanol] | ≤ 10 µM
5 | CCC(C)NC(=O)c1ccccc1Nc1nc(Nc2ccc(Cn3cncn3)cc2)ncc1-c1cn[nH]c1 (stereo not drawn) [Example 25, N-(1-methylpropyl)-2-[(5-(1H-pyrazol-4-yl)-2-{[4-(1H-1,2,4-triazol-1-ylmethyl)phenyl]amino}-4-pyrimidinyl)amino]benzamide] | ≤ 10 µM
6 | COc1ccccc1Nc1nc(Nc2ccc(Cn3cncn3)cc2)ncc1-c1cncnc1 [Example 33, N^4-[2-(methyloxy)phenyl]-N^2-[4-(1H-1,2,4-triazol-1-ylmethyl)phenyl]-5,5′-bipyrimidine-2,4-diamine] | ≤ 10 µM
7 | Cc1ncc(-c2cccc(Nc3nc(Nc4ccc(Cn5cncn5)cc4)ncc3-c3cncnc3)c2)s1 [Example 51, N^4-[3-(2-methyl-1,3-thiazol-5-yl)phenyl]-N^2-[4-(1H-1,2,4-triazol-1-ylmethyl)phenyl]-5,5′-bipyrimidine-2,4-diamine] | ≤ 10 µM
8 | CCN(CC)CCOc1ccc(Nc2ncc(-c3cncnc3)c(Nc3cccc(C#N)c3)n2)cc1 [Example 44, 3-({2-[(4-{[2-(diethylamino)ethyl]oxy}phenyl)amino]-5,5′-bipyrimidin-4-yl}amino)benzonitrile] | ≤ 10 µM
9 | CCN(CC)CCOc1ccc(Nc2ncc(-c3cccc(C(N)=O)c3)c(Nc3ccccc3OC)n2)cc1 [Example 63, 3-(2-[(4-{[2-(diethylamino)ethyl]oxy}phenyl)amino]-4-{[2-(methyloxy)phenyl]amino}-5-pyrimidinyl)benzamide] | ≤ 10 µM
10 | CCN(CC)CCOc1ccc(Nc2ncc(-c3cncc(OC)c3)c(Nc3ccccc3OC)n2)cc1 [Example 6, N^2-(4-{[2-(diethylamino)ethyl]oxy}phenyl)-N^4-[2-(methyloxy)phenyl]-5-[5-(methyloxy)-3-pyridinyl]-2,4-pyrimidinediamine] | ≤ 10 µM
11 | CCN(CC)CCOc1ccc(Nc2ncc(-c3cccc(N)c3)c(Nc3ccccc3OC)n2)cc1 [Example 35, 5-(3-aminophenyl)-N^2-(4-{[2-(diethylamino)ethyl]oxy}phenyl)-N^4-[2-(methyloxy)phenyl]-2,4-pyrimidinediamine] | ≤ 10 µM
12 | CCN(CC)CCOc1ccc(Nc2ncc(-c3ccccc3Cl)c(Nc3ccccc3OC)n2)cc1 [Example 11, 5-(2-chlorophenyl)-N^2-(4-{[2-(diethylamino)ethyl]oxy}phenyl)-N^4-[2-(methyloxy)phenyl]-2,4-pyrimidinediamine] | ≤ 10 µM
13 | CCN(CC)CCOc1ccc(Nc2ncc(-c3cncnc3)c(Nc3ccccc3OC)n2)cc1 [Example 8, N^2-(4-{[2-(diethylamino)ethyl]oxy}phenyl)-N^4-[2-(methyloxy)phenyl]-5,5′-bipyrimidine-2,4-diamine] | ≤ 10 µM
14 | CCN(CC)CCOc1ccc(Nc2ncc(-c3cn[nH]c3)c(Nc3ccccc3OC)n2)cc1 [Example 3, N^2-(4-{[2-(diethylamino)ethyl]oxy}phenyl)-N^4-[2-(methyloxy)phenyl]-5-(1H-pyrazol-4-yl)-2,4-pyrimidinediamine] | ≤ 10 µM
15 | CCN(CC)CCOc1ccc(Nc2ncc(-c3cnn(Cc4ccccc4)c3)c(Nc3ccccc3OC)n2)cc1 [Example 12, N^2-(4-{[2-(diethylamino)ethyl]oxy}phenyl)-N^4-[2-(methyloxy)phenyl]-5-[1-(phenylmethyl)-1H-pyrazol-4-yl]-2,4-pyrimidinediamine] | ≤ 10 µM
16 | CCN(CC)CCOc1ccc(Nc2ncc(-c3cnc4ccccc4c3)c(Nc3ccccc3OC)n2)cc1 [Example 10, N^2-(4-{[2-(diethylamino)ethyl]oxy}phenyl)-N^4-[2-(methyloxy)phenyl]-5-(3-quinolinyl)-2,4-pyrimidinediamine] | ≤ 10 µM
17 | CCN(CC)CCOc1ccc(Nc2ncc(-c3ccc4[nH]ncc4c3)c(Nc3ccccc3OC)n2)cc1 [Example 4, N^2-(4-[{2-(diethylamino)ethyl]oxy}phenyl)-5-(1H-indazol-5-yl)-N^4-[2-(methyloxy)phenyl]-2,4-pyrimidinediamine] | ≤ 10 µM
18 | CCN(CC)CCOC(=O)Nc1ccc(Nc2ncc(-c3cncnc3)c(Nc3ccccc3OC)n2)cc1 [Example 43, 2-(diethylamino)ethyl {4-[(4-{[2-(methyloxy)phenyl]amino}-5,5′-bipyrimidin-2-yl)amino]phenyl}carbamate] | ≤ 10 µM

From patent publication US20100113445A1, “Chemical Compounds” (SMITHKLINE BEECHAM CORPORATION, priority 2007, published 2010)
